Results: PubChem BioAssay (NCI)
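All cell lines were grown in 96-well plates and treated with compound for 48 hours. GI50 marks 50% less growth. Definition used: TGI = concentration required for complete inhibition of growth.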

Experiments:
Assay in all cases: inhibition of tumour cell growth, NCI panel, 48 h
[1] = system: SK-OV-3 ovarian
[2] = system: KM12 colon
[3] = system: A549 NSCLC
[4] = system: ACHN renal
[5] = system: MDA-MB-435
[6] = system: OVCAR-3 ovarian
[7] = system: U251 CNS
[8] = system: BT-549 breast

Compound | TGI [1] | TGI [2] | TGI [3] | TGI [4] | TGI [5] | TGI [6] | TGI [7] | TGI [8] | GI50 [1] | GI50 [2] | GI50 [3] | GI50 [4] | GI50 [6] | GI50 [7] | GI50 [8]
O=[N+]([O-])/C(C(Cl)=C(Cl)Cl)=C1\Nc2ccccc2O1 | > 100 µM | > 100 µM | > 100 µM | > 100 µM | > 100 µM | 63.6 µM | > 100 µM |  |  |  |  |  |  |  | 
[N-]=N[N+]#I1OC(C(F)(F)F)(C(F)(F)F)c2ccccc21 | 58.8 µM | 29 µM | 39.2 µM | 29.1 µM | 34.2 µM | 27.8 µM | 33.8 µM |  |  |  |  |  |  |  | 
O=c1c2cc([N+](=O)[O-])ccc2n2n1Cc1ccccc1CC2 | > 100 µM | > 100 µM | > 100 µM | > 100 µM | > 100 µM | > 100 µM | > 100 µM | > 100 µM |  |  |  |  |  |  | 
Cc1c2c(n3c(nc4ccccc43)c1C#N)N(c1ccc(Cl)cc1)CC2 | > 100 µM |  | > 100 µM | > 100 µM | > 100 µM | > 100 µM | > 100 µM | > 100 µM |  |  |  |  |  |  | 
COc1ccc(-n2c(CCCC(=O)O)nc3c2C(=O)c2ccccc2C3=O)cc1 | > 100 µM | > 100 µM | > 100 µM | > 100 µM | 78.9 µM | 92.9 µM | > 100 µM | > 100 µM |  |  |  |  |  |  | 
C1=C2SSC3=CC=C(SSc4ccc(s4)SSC4=CC=C(SSC(=C1)S2)S4)S3 | > 100 µM | > 100 µM | > 100 µM | > 100 µM | > 100 µM | > 100 µM | > 100 µM | > 100 µM |  |  |  |  |  |  | 
O=C1N[C@H]2c3c(Cl)sc(Cl)c3C(=O)[C@H]2O1 | 52.1 µM | > 100 µM | > 100 µM | 35.6 µM | 36 µM | 36.8 µM | 15.7 µM | 45 µM |  |  |  |  |  |  | 
COc1ccc(NC(=S)NN=C(C)c2cccc(C(C)=NNC(=S)Nc3ccc(OC)cc3)n2)cc1 | > 100 µM | 84.2 µM | > 100 µM | > 100 µM | > 100 µM | > 100 µM | > 100 µM |  |  |  |  |  |  |  | 
O=C(C=P(c1ccccc1)(c1ccccc1)c1ccccc1)C12CC3CC(CC(C3)C1)C2 |  | 32 µM | 36 µM | 29.7 µM | 26.6 µM | 28.5 µM | 34 µM | 33.8 µM |  |  |  |  |  |  | 
C/C(=N\Nc1nc2cc(C)ccc2s1)c1ccccn1 | 43.1 µM | 12.6 µM | > 31.6 µM | 11 µM | > 64.5 µM |  |  | > 69.1 µM |  |  |  |  |  |  | 
COc1ccc(C2CC(c3cc4c(C)c(C(=O)c5ccccc5)oc4cc3O)=Nc3ccccc3S2)cc1OC (stereo unspecified) |  | > 34.8 µM | > 100 µM | > 100 µM | 2.05 µM | > 100 µM | > 100 µM | > 100 µM |  |  |  |  |  |  | 
CC(C)(C)C1CCC2c3c([nH]c4ccccc34)C3C(=O)N(c4cc(Br)cc(Br)c4)C(=O)C3C2C1 (stereo unspecified) | > 100 µM | > 100 µM | > 100 µM | > 100 µM | 77.2 µM |  | 30.3 µM | > 100 µM |  |  |  |  |  |  | 
O=C(NCc1cn(Cc2cccc(Oc3ccccc3)c2)nn1)c1cccnc1Nc1ccccc1 | 15.1 µM | 46.4 µM | 95.2 µM | > 100 µM |  | 5.46 µM | 18.9 µM | 8.53 µM | 3.79 µM | 3.63 µM | 4.81 µM | 5.67 µM | 2.28 µM | 3.61 µM | 2.8 µM
